Results: article PMC9321663, “The DevTox Germ Layer Reporter Platform: An Assay Adaptation of the Human Pluripotent Stem Cell Test” (Toxics, 2022)
Read-outs that look alike come from different tables or passages of the source.

What was measured:
[1] = system: SOX17 (endoderm marker) in RUES2-GLR cells; experiment: DevTox GLR-Endo assay: decrease in percent SOX17-positive cells (AEID 3094, Sox17_dn); conditions: for Hit Call: Table S2, SOX17-positive cells, cutoff 3*bmad; for DevTox ACC: Table S2, percent SOX17-positive cells; for DevTox-GLR Endo ACC: activity concentration at cutoff, SOX17-positive cells; for HIT−CALL: tcpl plot AEID3094, COFF 20.3; for effect on SOX17-positive cells (in words): 48 h exposure during directed endoderm differentiation
Summary of the method: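 Readouts are loss of SOX17-positive fraction and reduced cell number in endoderm-differentiating RUES2-GLR cells after 48 h of chemical exposure. Controls: undifferentiated and differentiated cells, 0.2% DMSO, and 1 µM SB431542; at least four biological replicates.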

[2] = system: RUES2-GLR cells; experiment: DevTox GLR-Endo assay: decrease in total cell count, cytotoxicity (AEID 3098, CellCount_dn); conditions: for Emax: Homo sapiens, read-out: Cell Count % Max Inhibition
[3] = system: SOX17 (endoderm marker) in RUES2-GLR cells; experiment: DevTox GLR-Endo assay: increase in percent SOX17-positive cells (AEID 3093, Sox17_up); type: cell-based, human; conditions: for Emax: Homo sapiens; for HIT−CALL: tcpl plot AEID3093, COFF 20.3
Description: (§1) The total test chemical incubation period was 48 h.
(§2) (Supplementary Materials).

[4] = system: H9 embryonic stem cells; conditions: concentration at cell viability cutoff; cited from earlier work
[5] = cited from earlier work; for Development Toxicant Classification: Table S2; for Classification: developmental toxicant classification (Teratogen / Non-Teratogen) of reference and training chemicals, ref DOI per chemical: 10.1093/toxsci/kft239, 10.1093/toxsci/kfaa014, 10.1177/026119290203000204, 10.1038/s41598-020-59542-x; for DT Class.: developmental toxicant classification
[6] = system: SOX2 (ectoderm and pluripotency marker) in RUES2-GLR cells; experiment: DevTox GLR-Endo assay: increase in percent SOX2-positive cells (AEID 3095, Sox2_up); conditions: for AC50 / Emax: Homo sapiens; for AC50: read-out: ga (winning model); for Emax: read-out: tp (winning model); for MAX_MEAN: tcpl plot AEID3095, maximum mean response; for MAX_MED: tcpl plot AEID3095, maximum median response;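 on all read-outs here: cells exposed to test chemicals for 48 h in total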
[7] = system: BRA (mesoderm marker) in RUES2-GLR cells; experiment: DevTox GLR-Endo assay: increase in percent BRA-positive cells (AEID 3096, Bra_up); type: cell-based, human; conditions: for HIT−CALL: tcpl plot AEID3096, COFF 0.774; for MAX_MEAN: tcpl plot AEID3096, maximum mean response; for MAX_MED: tcpl plot AEID3096, maximum median response
Description: as §1, §2

[8] = system: o/c ratio in H9 embryonic stem cells; conditions: Teratogen Index, o/c ratio; cited from earlier work
[9] = DevTox GLR-Endo assay: decrease in total cell count, cytotoxicity (AEID 3098, CellCount_dn); conditions: human, RUES2-GLR cells under directed endoderm differentiation
[10] = system: SOX17 in H9 human ESC line; conditions: SOX17 half-maximal inhibition concentration; read-out: hPST IC50; cited from earlier work
[11] = system: H9 human ESC line; conditions: cited from earlier work
[12] = Homo sapiens, read-out: DevTox % Max Inhibition
[13] = Homo sapiens, read-out: MAX_MEAN
[14] = Homo sapiens, read-out: MAX_MED
[15] = Homo sapiens, read-out: ga (winning model), tcpl plot AEID3094, gain parameter of winning curve fit (log concentration, µM axis), hit calls only (converted)
[16] = Homo sapiens, read-out: tp (winning model)
[17] = tcpl plot AEID3093, maximum mean response, read-out: MAX_MEAN
[18] = tcpl plot AEID3093, maximum median response, read-out: MAX_MED
[19] = chemicals common with quickPredict
[20] = Homo sapiens, 48 h, read-out: DevTox-GLR Endo AC50 (µM), SOX17 half-maximal activity concentration, 48 h exposure
[21] = cytotoxicity half-maximal concentration

Structure (SMILES) | Emax [1, 12] [%] | Emax [1, 13] [%] | Emax [1, 14] [%] | Hit Call [1] | DevTox ACC ([1]; 48 h exposure) [µM] | HIT−CALL [1] | Emax [2] [%] | Cell Count ACC ([2]; human, 48 h) [µM] | Emax [3, 17] [%] | Emax [3, 18] [%] | HIT−CALL [3] | Development Toxicant Classification [5] | Classification [5] | DT Class. [5, 19] | MAX_MEAN [6] [Percent Activity] | MAX_MED [6] [Percent Activity] | HIT−CALL [7] | MAX_MEAN [7] [Percent Activity] | MAX_MED [7] [Percent Activity] | quickPredict TI [8] [µM] | also measured
CC(C)(c1ccc(O)cc1)c1ccc(O)cc1 [Bisphenol A] | 102 | 102 | 102 | Positive | 31.7467 | 1 | 94.4 | 21.1157 | 9.9 | 10.7 | 0 | Positive | Teratogen | Pos | 4.11 | 3.32 |  |  |  |  | AC50 [1, 15]: 38.9 µM; Emax [1, 16]: 102%; DevTox-GLR Endo ACC ([1]; 48 h exposure): 31.75 µM; DevTox-GLR Endo CC ([2]; human, 48 h): 21.12 µM; quickPredict CV [4]: 39.4 µM; AC50 [6]: 38 µM; Emax [6]: 3.24%
O=C(O)c1ccccc1O [Salicylic Acid] | 6.91 | 7.1 | 6.91 | Negative | >200 | 0 | 11.5 | >200 | 8.74 | 9.69 | 0 |  | Non-Teratogen | Neg | 0.533 | 0.494 | 0 | 0.835 | 0.894 | 513 | quickPredict CV [4]: 1795 µM
O=C1CCC(N2C(=O)c3ccccc3C2=O)C(=O)N1 (stereo not shown) [Thalidomide] | 79.1 | 78 | 79.1 | Positive | 0.2523 | 1 | 19.5 | >200 | 4.62 | 3.35 | 0 | Positive | Teratogen | Pos | 0.64 | 0.473 | 0 | 0.925 | 0.968 | 1.27 | effect on SOX17-positive cells (in words) [1]: significant reductions in the SOX17-positive sub-population; effect on SOX17-positive cells (in words) ([1]; listed as thalidomide): concentration-dependent loss of SOX17-positive cells; IC50 ([1]; Homo sapiens, 48 h): 1.71 µM; AC50 [1, 20]: 1.64 µM; AC50 [1, 15]: 1.64 µM; Emax [1, 16]: 81.4%; DevTox-GLR Endo ACC ([1]; 48 h exposure): 0.25 µM; % Max Inhibition ([1]; maximum inhibition of SOX17-positive cells, reference chemical testing, 48 h exposure): 58%; CC50 at 48 h [9]: > 200 µM; effect on cell counts (in words) [2]: cell counts remained constant; IC50 [10]: 0.5 µM; hPST TC50 [11, 21]: >200 µM; hPST TC50 ([11]; hPST cytotoxicity): > 200 µM; DT Class. ([5]; chemicals common with hPST): Pos; Developmental Toxicant Classification ([5]; reference chemicals): Positive
NC(=O)N1c2ccccc2C=Cc2ccccc21 [Carbamazepine] | 52.2 | 52.1 | 52.2 | Positive | 64.024 | 1 | 39.1 | 57.7753 | 12.3 | 12.1 | 0 | Positive | Teratogen | Pos | 0.534 | 0.576 | 1 | 1.14 | 1.04 | 2.29 | AC50 [1, 20]: 103 µM; AC50 [1, 15]: 102 µM; Emax [1, 16]: 65.3%; DevTox-GLR Endo ACC ([1]; 48 h exposure): 64.02 µM; CC50 at 48 h [9]: 137 µM; DevTox-GLR Endo CC ([2]; human, 48 h): 57.78 µM; IC50 [10]: 0.08 µM; hPST TC50 [11, 21]: 0.19 µM; hPST TC50 ([11]; hPST cytotoxicity): 0.19 µM; DT Class. ([5]; chemicals common with hPST): Pos
CN(Cc1cnc2nc(N)nc(N)c2n1)c1ccc(C(=O)N[C@@H](CCC(=O)O)C(=O)O)cc1 [Methotrexate] | 24.6 | 22.4 | 24.6 | Negative | >200 | 0 | 44.6 | 0.3474 | 2.23 | 2.87 | 0 | Positive | Teratogen | Pos | 0.917 | 0.899 | 1 | 1.26 | 1.19 | 0.059 | hit call designation (in words) ([1]; DevTox GLR-Endo prediction against developmental toxicant classification): borderline calls; Emax ([1]; Homo sapiens, read-out: maximum observed effect level class (% max inhibition)): 20 to 80%; effect on cell count (in words) [2]: significant decreases in cell count; DevTox-GLR Endo CC ([2]; human, 48 h): 0.35 µM; effect on cell count (in words) ([2]; human, 48 h): significant cell loss that did not impact SOX17-positive populations; quickPredict CV [4]: 0.062 µM; AC50 [6]: 0.0525 µM; Emax [6]: 0.771%
